{"source": "patent US10640556B2", "about": "“Anti amphiregulin antibodies, compositions comprising same and uses thereof” (Yeda Research and Development Co. Ltd., priority 2015, dated 2020)", "key": {"Caspase-3": {"system": "Caspase-3", "test": "Caspase-3 cleavage immunoblot in OVCAR5 cells", "type": "cell-based, human", "conditions": "cisplatin 5 μg/mL overnight as positive control", "method": "FIGS. 4A-4D illustrate that depletion of AREG expression inhibits tumorigenic growth of human ovarian cancer cells. FIG. 4A is a graph illustrating results of OVCAR5 ovarian cancer cells treated with lentiviral expression constructs, either a scrambled shRNA or an AREG-specific shRNA. Conditioned media were collected three days later and the levels of secreted AREG were assessed using ELISA; FIG. 4B is a graph illustrating the growth rates of shAREG or shControl OVCAR5 cells measured using the MTT assay. Shown are means±S.D. values of hexaplicates (*P<0.005, t-test); FIG. 4C is a photograph illustrating Caspase-3 cleavage as assessed using immunoblotting and OVCAR5 sub-lines stably expressing three different shAREGs, or shControl. The assay was performed either in full medium or under serum starvation. Overnight treatment with cisplatin (5 μg/mL) was used as a positive control. […] Female nude mice (6 weeks old; 10 per group) were inoculated subcutaneously with OVCAR5 ovarian cells (3×10^6 per animal) pre-treated with either a scrambled shRNA or the AREG-specific shRNA. Tumor volumes were measured as indicated. Data points are presented as mean volume±S.D. values (*P<0.005, t-test)."}, "promoter region of AREG [1]": {"system": "promoter region of AREG", "test": "AREG promoter luciferase reporter in MLS cells", "type": "cell-based, human", "conditions": "MLS ovarian cells, increasing concentrations of cisplatin, 48 hours", "method": "(§1) FIGS. 5A-5B illustrate transcriptional activation of the AREG promoter by cisplatin. FIG. 5A is a graph illustrating the results of MLS cells transfected with a luciferase reporter containing the promoter region of AREG. Luciferase activity derived from the Renilla luciferase, was determined and normalized to that derived from the firefly luciferase reporter. Twenty-four hours after transfection, increasing concentrations of cisplatin were added and 48 hours later the cells were subjected to luciferase assay; and FIG. 5B illustrates the results of A549 lung cancer cells treated as in FIG. 5A. Averages of triplicates and S.D. values (bars) are presented (*P<0.03, **P<0.01, t-test). For promoter reporter assays, MLS and A549 cells were co-transfected with a Renilla luciferase plasmid containing the promoter region of AREG, TGF-alpha, a positive control of promoter activity, namely GAPDH, or a random control vector R01 used as a negative control (SwitchGear Genomics). Additionally, the pGL3-Control vector containing Firefly luciferase (Promega) was transfected as a control for transfection efficiency. Promoter activity was determined using the dual-luciferase reporter assay system according to the manufacturer's instructions (Promega). Renilla luciferase luminescence values were normalized to Firefly luminescence and quantified relative to control."}, "promoter region of AREG [2]": {"system": "promoter region of AREG", "test": "AREG promoter luciferase reporter in A549 cells", "type": "cell-based, human", "conditions": "A549 lung cells, increasing concentrations of cisplatin, 48 hours", "method": "as §1"}, "[3]": {"system": "promoter region of TGF-alpha", "test": "TGF-alpha promoter luciferase reporter in MLS cells", "type": "cell-based, human", "conditions": "increasing concentrations of cisplatin, 24 hours", "method": "FIGS. 5C-5F illustrate that AREG, unlike HB-EGF and TGF-alpha, undergoes up-regulation in response to a chemotherapeutic agent. FIG. 5C is a graph illustrating results of MLS cells transfected with a luciferase reporter containing the promoter region of TGF-alpha. The luciferase activity derived from the Renilla luciferase was normalized to that derived from the firefly luciferase (co-transfection control). Twenty-four hours after transfection, increasing concentrations of cisplatin were added, and 24 hours later the cells were subjected to luciferase assays; FIG. 5D is a graph illustrating assessment of GAPDH promoter activity as described in FIG. 5C; FIG. 5E is a graph illustrating the results of MLS ovarian cancer cells exposed to increasing concentrations of cisplatin. Cells were assessed for the secretion of the indicated ligands using ELISA; and FIG. 5F is a graph illustrating assessment of the A549 lung cancer cell line analyzed as in FIG. 5E. […] Promoter activity was determined using the dual-luciferase reporter assay system according to the manufacturer's instructions (Promega). Renilla luciferase luminescence values were normalized to Firefly luminescence and quantified relative to control."}, "[4]": {"system": "MLS ovarian cancer cells and A549 lung cancer cells", "test": "ELISA of ligand secretion by MLS and A549 cells", "type": "cell-based, human", "conditions": "ovarian (MLS) and lung (A549) cancer cells exposed to cisplatin", "method": "FIGS. 5C-5F illustrate that AREG, unlike HB-EGF and TGF-alpha, undergoes up-regulation in response to a chemotherapeutic agent. FIG. 5C is a graph illustrating results of MLS cells transfected with a luciferase reporter containing the promoter region of TGF-alpha. The luciferase activity derived from the Renilla luciferase was normalized to that derived from the firefly luciferase (co-transfection control). Twenty-four hours after transfection, increasing concentrations of cisplatin were added, and 24 hours later the cells were subjected to luciferase assays; FIG. 5D is a graph illustrating assessment of GAPDH promoter activity as described in FIG. 5C; FIG. 5E is a graph illustrating the results of MLS ovarian cancer cells exposed to increasing concentrations of cisplatin. Cells were assessed for the secretion of the indicated ligands using ELISA; and FIG. 5F is a graph illustrating assessment of the A549 lung cancer cell line analyzed as in FIG. 5E. Human cancer cell lines were seeded in 10 cm plates, covered with medium (6 mL) and incubated for 4 days. The supernatants were collected and centrifuged at 1200 rpm for 5 minutes."}, "MLS ovarian cancer cells": {"system": "MLS ovarian cancer cells", "test": "MLS ovarian tumor xenograft in nude mice", "type": "in vivo", "conditions": "MLS tumors, AR30 100 μg/mouse twice a week, cisplatin 5 mg/kg, FIG. 7B", "method": "FIG. 7A, female nude mice (6 weeks old) were inoculated subcutaneously with MLS ovarian cancer cells (2×10^6 per animal). Once tumors became palpable, mice were randomized into two groups. Eleven mice were injected intraperitoneally with an anti-AREG mAb (AR30; 200 μg/mouse; twice a week, on days: 8, 11, 14, 17, and 21). The control group also included 11 mice. Shown are means±S.D. values; FIG. 7B, female nude mice (6 weeks old) were inoculated subcutaneously with MLS ovarian cancer cells (2×10^6 per animal). Once tumors became palpable, mice were randomized into four groups. One group (8 mice) was injected intraperitoneally with the AR30 mAb (100 μg/mouse twice a week, on days: 8, 14, 17, 21, 24 and 28). Another group (8 mice) was treated with cisplatin (5 mg/kg; on days 8 and 21). The fourth group was treated with a combination of mAb AR30 and cisplatin. The control group included 12 mice; and FIG. 7C, the indicated MLS tumors were excised, and their average weights determined. Representative tumors were photographed.\nAll animal procedures were approved by the Weizmann Institute of Science's review board. Female athymic NCr-nude mice (6 weeks old) were inoculated subcutaneously with 2×10^6 human ovarian MLS cancer cells. Once tumors became palpable (5-7 days), the mice were randomized into groups and injected intraperitoneally at the indicated time points with the indicated monoclonal antibodies, chemotherapy or the combination. Tumor volumes were monitored twice a week, and body weights were measured once a week."}}, "data": [{"smiles": "N.N.[Cl][Pt][Cl]", "note": "[cisplatin]", "values": [{"measurement": "Caspase-3 cleavage", "setting": "Caspase-3", "value": "cleaved only in cells incubated for 12 hours in the presence of cisplatin"}, {"measurement": "increase in AREG promoter reporter activity", "setting": "promoter region of AREG [1]", "value": 2, "unit": "fold"}, {"measurement": "increase in AREG promoter reporter activity", "setting": "promoter region of AREG [2]", "value": 1.5, "unit": "fold"}, {"measurement": "TGF-alpha promoter reporter activity", "setting": "[3]", "value": "no consistent, cisplatin-induced changes in TGF-alpha induction"}, {"measurement": "secretion of EGF-family ligands to the medium", "setting": "[4]", "value": "increased secretion of AREG, not EGF, TGF-alpha or HB-EGF"}, {"measurement": "tumor growth", "setting": "MLS ovarian cancer cells", "value": "only mildly inhibited"}]}]}
